{
  "source": "patent US5372813A",
  "about": "(priority 1992, dated 1994)",
  "key": {"[1]": {"biological_target": "T1, 5-HT (serotonin) reuptake complex (Rattus norvegicus, UniProt P31652)", "T1 construct": "from tissue; host or cells: rat cortical brain homogenates", "T1 sequence (P31652 whole entry, one chain of several)": "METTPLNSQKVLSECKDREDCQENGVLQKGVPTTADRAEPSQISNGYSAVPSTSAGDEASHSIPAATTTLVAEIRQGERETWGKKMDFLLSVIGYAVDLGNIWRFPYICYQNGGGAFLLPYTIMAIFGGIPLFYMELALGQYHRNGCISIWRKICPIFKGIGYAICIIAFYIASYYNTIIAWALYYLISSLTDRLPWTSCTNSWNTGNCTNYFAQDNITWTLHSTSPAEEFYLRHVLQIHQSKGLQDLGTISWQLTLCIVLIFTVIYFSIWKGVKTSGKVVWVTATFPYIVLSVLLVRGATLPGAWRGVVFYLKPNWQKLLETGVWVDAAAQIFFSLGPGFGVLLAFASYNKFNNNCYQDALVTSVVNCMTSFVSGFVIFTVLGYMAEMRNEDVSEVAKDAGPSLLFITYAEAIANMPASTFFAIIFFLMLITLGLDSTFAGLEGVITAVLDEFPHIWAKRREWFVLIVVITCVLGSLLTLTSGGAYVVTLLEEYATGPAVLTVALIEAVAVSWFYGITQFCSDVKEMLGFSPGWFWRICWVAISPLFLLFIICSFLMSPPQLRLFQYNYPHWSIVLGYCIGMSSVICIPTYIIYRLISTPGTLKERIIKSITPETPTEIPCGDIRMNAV", "assay": "competition with 3H-paroxetine for the 5-HT reuptake complex in rat cortical brain homogenates (Ki)", "assay_type": "binding", "conditions": "Ki of analogue relative to Ki of 6-NQP", "experimental": "A potency ratio was also determined by comparing the Ki of the analogue to the Ki experimentally determined for the unsubstituted 6-Nitroquipazine."}, "[2]": {"biological_target": "T1, 5-HT (serotonin) reuptake complex", "assay": "competition with 3H-paroxetine for the 5-HT reuptake complex in rat cortical brain homogenates (Ki)", "assay_type": "binding"}, "5-HT reuptake complex [3]": {"tested_on": "5-HT reuptake complex", "assay": "in vivo blocking of 5-125I-6-NQP brain binding by co-injected drugs", "design": "species or system rat", "conditions": "co-injection, LSD 0.5 mg/kg; GBR-12909 and DMI 2 mg/kg, in words", "quoted_text": "A critical test of the in vivo behavior of the radioligand is the ability to block its specific binding."}, "5-HT reuptake site": {"tested_on": "5-HT reuptake site", "assay": "neurotoxin (PCA) pretreatment study, 5-125I-6-NQP binding", "assay_type": "in vivo, rat", "conditions": "PCA 10 mg/kg for 2 days", "source_text": "The in vivo results were consistent with the reduction in Bmax measured by in vitro binding methods and indicated up to a 90% reduction in 5-HT reuptake site densities in lesioned rats."}, "depression": {"tested_on": "depression", "conditions": "patients, in words; cited from earlier work"}, "serotonin uptake system": {"tested_on": "serotonin uptake system", "assay": "competition of known ligands against 5-125I-6-NQP in membrane preparation", "assay_type": "binding, rat", "conditions": "versus e.g. sertraline and fluoxetine, in words", "experimental": "In the second set of experiments, competition experiments were performed with known agonist and antagonists to the serotonin uptake system, post synaptic serotonin receptors, and a receptors of other brain receptor systems. These compounds were incubated against 5-^125 I-6-NQP to determine the concentration needed to displace 5-^125 I-6-NQP from the membrane preparations. The strongest competitors were those specific for the serotonin uptake system, (FIG. 2)."}, "[4]": {"assay": "metabolite determination in brain and thyroid radioactivity after injection of 5-125I-6-NQP", "assay_type": "in vivo, rat", "experimental": "The brains of rats which had been injected with 25 μCi of 5-^125 I-6-NQP 6 h earlier were removed, homogenized, and repeatedly extracted with ethyl acetate and added cold 5-I-6-NQP carrier. The ethyl acetate fractions were pooled and evaporated, and the concentrate subject to TLC and HPLC (with fraction collection) analyses to determine metabolites in the brain."}, "5-HT reuptake complex [5]": {"tested_on": "5-HT reuptake complex", "assay": "ex vivo autoradiography of rat brain", "conditions": "25 μCi, 2, 6 and 12 h post injection, in words", "experimental": "Ex vivo autoradiography was performed on rats injected with 25 μCi 5-^125 I-6-NQP and killed at 2, 6 and 12 h post injection."}, "serotonin uptake sites": {"biological_target": "serotonin uptake sites (Rattus norvegicus, UniProt P31652)", "sequence (P31652 whole entry)": "as the sequence (P31652 whole entry, one chain of several) above", "assay": "Scatchard saturation binding of 5-125I-6-NQP to isolated rat brain membranes, control and PCA-treated", "conditions": "PCA-treated versus control rats, in vitro, in words"}, "[6]": {"assay": "in vivo brain uptake, clearance and regional distribution of 5-125I-6-NQP after i.v. injection", "conditions": "rat", "experimental": "Whole body distribution studies were performed in rats in accordance with the method of Carl Mathis, et al described in Nuclear Medicine and Biology 19: 571-588 (1992).\nThe ratios of regional activity concentrations to cerebellar concentrations are plotted in the left panel of FIG. 4. […] Also plotted in the right panel of FIG. 4 is the time course of specific binding (total regional radioactivity cerebellar radioactivity) in a representative tissue."}, "[7]": {"conditions": "rat cortical brain homogenates, 3H-paroxetine displacement, read-out: In vitro Inhibition Constants (Ki) for the 5-HT Reuptake Site"}},
  "note": "Read-outs that look alike come from different tables or passages of the source.",
  "data": [
    {"smiles": "O=[N+]([O-])c1ccc2nc(N3CCNCC3)c(Br)cc2c1", "note": "[3-Br-6-NQP, 3-Bromo-6-nitro-2-piperazinylquinoline]", "values": [
      {"measurement": "Potency Ratio", "setting": "[1]", "value": 42},
      {"measurement": "Ki", "setting": "[2]", "value": "9.6 ± 2.6", "unit": "nM"}
    ]},
    {"smiles": "Fc1ccc(C(OCCN2CCN(CCCc3ccccc3)CC2)c2ccc(F)cc2)cc1", "note": "[GBR-12909]", "values": [
      {"measurement": "radioactivity concentrations in brain regions", "setting": "5-HT reuptake complex [3]", "value": "little effect on radioactivity concentrations in these regions"}
    ]},
    {"smiles": "CCN(CC)C(=O)[C@@H]1C=C2c3cccc4[nH]cc(c34)C[C@H]2N(C)C1", "note": "[LSD]", "values": [
      {"measurement": "radioactivity concentrations in brain regions", "setting": "5-HT reuptake complex [3]", "value": "little effect on radioactivity concentrations in these regions"}
    ]},
    {"smiles": "CC(N)Cc1ccc(Cl)cc1", "note": "(stereo not shown) [PCA, p-chloroamphetamine]", "values": [
      {"measurement": "specifically bound radioactivity after PCA pretreatment", "setting": "5-HT reuptake site; i.v. 5-125I-6-NQP two weeks later, in words", "value": "regionally selective reduction of specifically bound radioactivity"},
      {"measurement": "reduction in 5-HT reuptake site densities in lesioned rats", "setting": "5-HT reuptake site; two weeks before", "value": "≤ 90", "unit": "%"}
    ]},
    {"smiles": "O=[N+]([O-])c1cc2ccc(N3CCNCC3)nc2cc1Br", "note": "[7-Br-6-NQP, 7-Bromo-6-nitro-2-piperazinylquinoline]", "values": [
      {"measurement": "Potency Ratio", "setting": "[1]", "value": 18},
      {"measurement": "Ki", "setting": "[2]", "value": "4.1 ± 1.5", "unit": "nM"}
    ]},
    {"smiles": "CNCCC(Oc1ccc(C(F)(F)F)cc1)c1ccccc1", "note": "(racemic) [fluoxetine, (±)-N--Methyl-3-Phenyl-3-[(ααα-trifluoro-p-tolyl)oxy]propylamine]", "values": [
      {"measurement": "anti-depressant efficacy compared with certain tricyclic amine drugs", "setting": "depression", "value": "equal anti-depressant efficacy"},
      {"measurement": "total side effects and dropouts compared with certain tricyclic amine drugs", "setting": "depression", "value": "fewer total side effects and dropouts"}
    ]},
    {"smiles": "O=[N+]([O-])c1ccc2nc(N3CCNCC3)ccc2c1", "note": "[6-NQP, 6-nitro-2-N-piperazinylquinoline, reference compound]", "values": [
      {"measurement": "Potency Ratio", "setting": "[1]", "value": 1},
      {"measurement": "Ki", "setting": "[2]; [7]", "value": "0.23 ± 0.06", "unit": "nM"}
    ]},
    {"smiles": "O=[N+]([O-])c1ccc2nc(N3CCNCC3)ccc2c1[125I]", "note": "[5-^125 I-6-NQP, [^125 I]5-Iodo-6-nitro-2-piperazinylquinoline]", "values": [
      {"measurement": "relative potency for the uptake site versus other serotonin uptake ligands", "setting": "serotonin uptake system", "value": "greater than that observed for other serotonin uptake ligands"},
      {"measurement": "remaining at 6 h", "setting": "[4]; 25 uCi, rat brain, 25 μCi, 6 h, read-out: unmetabolized radioligand in brain (organic phase radioactivity)", "value": "> 98", "unit": "%"},
      {"measurement": "metabolic deiodination in vivo", "setting": "[4]; rat, 6 h, in words", "value": "metabolic deiodination of 5-^125 I-6-NQP occurs in vivo in rats"},
      {"measurement": "radioactivity in the thyroid gland", "setting": "[4]; rat, 6 h post injection", "value": "11 % of the injected dose"},
      {"measurement": "binding distribution in rat brain by ex vivo autoradiography", "setting": "5-HT reuptake complex [5]", "value": "consistent with the known neuroanatomical distribution of the 5-HT reuptake complex"},
      {"measurement": "affinity (Kd) after PCA treatment", "setting": "serotonin uptake sites", "value": "little change in the affinity (Kd)"},
      {"measurement": "affinity (Kd) after PCA treatment", "setting": "serotonin uptake sites; listed as INQUIP", "value": "without change in affinity"},
      {"measurement": "total binding (Bmax) after PCA treatment", "setting": "serotonin uptake sites; listed as INQUIP", "value": "enormous reduction in binding after PCA treatment"},
      {"measurement": "whole brain accumulation", "setting": "[6]; 25 μCi (11 pmoles) i.v., 5 min post injection", "value": "1.9 % of the injected dose"},
      {"measurement": "ratios of regional to cerebellar activity concentrations", "setting": "[6]; i.v., 12 h period post injection, in words", "value": "increase in a nearly linear manner over the 12 h period post injection"},
      {"measurement": "brain penetration", "setting": "[6]; i.v., in words", "value": "good brain penetration"},
      {"measurement": "clearance of nonspecific binding (cerebellum) versus regions of high 5-HT innervation", "setting": "[6]; i.v., in words", "value": "more rapid than that of radioactivity clearance from brain regions containing high concentrations of 5-HT innervation"},
      {"measurement": "loss of activity from the brain", "setting": "[6]; i.v., over 12 h, in words", "value": "slow steady loss of activity from the brain over 12 h"}
    ]},
    {"smiles": "O=[N+]([O-])c1cc(Br)c2nc(N3CCNCC3)ccc2c1", "note": "[8-Br-6-NQP, 8-Bromo-6-nitro-2-piperazinylquinoline]", "values": [
      {"measurement": "Potency Ratio", "setting": "[1]", "value": 78},
      {"measurement": "Ki", "setting": "[2]", "value": "18 ± 3", "unit": "nM"}
    ]},
    {"smiles": "O=[N+]([O-])c1ccc2nc(N3CCNCC3)cc(Br)c2c1", "note": "[4-Br-6-NQP]", "values": [
      {"measurement": "Potency Ratio", "setting": "[1]", "value": 870},
      {"measurement": "Ki", "setting": "[2]; [7]", "value": "200 ± 80", "unit": "nM"}
    ]},
    {"smiles": "O=[N+]([O-])c1ccc2nc(N3CCNCC3)ccc2c1Br", "note": "[5-Br-6-NQP, 5-Bromo-6-nitro-2-piperazinylquinoline]", "values": [
      {"measurement": "Potency Ratio", "setting": "[1]", "value": 0.57},
      {"measurement": "Ki", "setting": "[2]", "value": "0.13 ± 0.02", "unit": "nM"}
    ]}
  ]
}
